Laboratory results: patent US5386832A, “Liver function breath test using aromatic amino acids” (New England Deaconess Hospital, priority 1993, dated 1995)
“And” between values parts separate entries of the source, which are not always exact repeats. Identical values can stand only once.

Test system: liver function
Test: breath test: oral 13C-phenylalanine, labeled CO2 in expired breath
Type: in vivo, patient
Settings: 100 mg oral; for maximum percent dose oxidized within 10 minutes / cumulative percent dose oxidized: group mean; for cumulative percent dose oxidized: 1 hr; for Max. % Dose Oxidized/10 min. / Cumulative 1 hr % Dose Oxidized: overnight fast; for Max. % Dose Oxidized/10 min.: breath every ten minutes for one hour; for Cumulative 1 hr % Dose Oxidized: over one hour
Description: All of the participants in the test are first required to fast overnight. This minimizes metabolic effects of meal absorption and the contribution of endogenous label appearing in the breath from natural levels of the endogenous isotope in the diet. While the preferred isotope for use in the test is ^13 C, other carbon isotopes (or even nitrogen isotopes) could be used. At least two baseline breath samples are collected and the mean isotope value in these samples is used as a background. This background is subtracted from the ^13 C levels determined following isotopic administration in order to obtain the change in ^13 C level.
All breath samples, both those collected prior to administration of the isotope and those after administration, are collected with a commercially available breath sampler such as a Quintron AlveoSampler. These samplers have a mouthpiece and a collection bag with a one-way valve there between. The breath samples are trapped in a syringe and the contents of the syringe are injected into a […] evacuation tube such as a Exetainer tube.
In the preferred mode of the invention, ^13 C-phenylalanine is used as the isotope tracer. One hundred mg doses of L-1-^13 C-phenylalanine are dissolved in 50 ml of water and the dose is administered orally. The dose bottle is washed with another 50ml of water and the wash is administered to the patient to make sure that all the phenylalanine was released from the dose bottle. Although intravenous or intramuscular administration of the isotope tracer could be used, the oral dose acts sufficiently and is much easier to administer.
Breath samples are collected every ten minutes for one hour after dosage. The amount of labeled isotope is measured using an isotope ratio mass spectrometer such a Europa Scientific Gas Isotope Ratio Mass Spectrometer (Europa Scientific, Inc., Cincinnati, Ohio). The ratio of ^13 C-CO2 to ^12 C-CO2 (mass ratio 45:44) is measured and compared to a reference CO2 tank. The reference CO2 is calibrated to the international PDB standard and the amount of labeled ^13 C is determined by the following formula
The mean Atom % ^13 C values are subtracted to determine the Atom % Excess ^13 C. The % Dose Oxid (or percent dose oxidized) is calculated from formulas 2 and 3.
Total ^13 C Excreted[…]%^13 C(from AUC)×5×(time in
min.)×Body Surface Area (m^2) (2)
% Dose Oxid=Total ^13 C Excreted/Dose (mmoles)×100% (3)
Two groups of subjects were used to test the efficacy of the present system. The first group contained 16 normal subjects while the second had 12 patients with various levels of liver disease.

[1] = 12 patients with liver disease, P<0.05 vs control
[2] = control group, 16 normal subjects, P<0.05 vs patients
[3] = individual control (normal) subjects 1-16
[4] = individual patients 17-28 with liver disease

maximum percent dose oxidized within 10 minutes [1]: 0.50±0.27% | cumulative percent dose oxidized [1]: 1.82±0.93% | maximum percent dose oxidized within 10 minutes [2]: 2.15±0.84% | cumulative percent dose oxidized [2]: 7.62±2.87%
Structure (SMILES): N[C@@H](Cc1ccccc1)[13C](=O)O [L-1-^13 C-phenylalanine]
Max. % Dose Oxidized/10 min. [3]: 2.46% and 4.53% and 1.48% and 1.57% and 2.81% and 2.82% and 1.20% and 2.31% and 1.05% and 1.65% and 2.19% and 2.37% and 2.60% and 2.11% and 1.75% | Cumulative 1 hr % Dose Oxidized [3]: 8.56% and 15.53% and 3.96% and 6.52% and 7.14% and 9.86% and 11.12% and 3.78% and 7.34% and 4.44% and 6.21% and 7.78% and 7.71% and 7.50% and 7.57% and 6.83% | Max. % Dose Oxidized/10 min. [4]: 0.43% and 0.62% and 0.36% and 0.93% and 0.49% and 0.17% and 0.38% and 0.58% and 1.09% and 0.46% | Cumulative 1 hr % Dose Oxidized [4]: 2.16% and 2.81% and 1.25% and 2.00% and 1.59% and 0.51% and 1.29% and 1.46% and 0.61% and 2.22% and 3.88% and 2.02%
